Experimental findings from PMC12624743 (ACS Infectious Diseases, 2025) are described below.

Assay [1] relates to N. gonorrhoeae topoisomerase IV ParC^E91G. The experiment in a line: biochemical. The following applies: ParC E91G vs WT. The method, then: (§1) Some experiments replaced MgCl2 with an equivalent concentration of CaCl2 (10 mM), or 1.5 mM ATP was added to assay mixtures.
(§2) Reactions were incubated at 37 °C for 30 min with WT and mutant (GyrA^D90N, GyrA^A92T, GyrA^S91F, GyrA^D95G, or GyrA^S91F/D95G) N. gonorrhoeae gyrase, 10 min with WT N. gonorrhoeae topoisomerase IV, and 20 min with mutant (ParC^D86N, ParC^S88P, ParC^S87N, or ParC^E91G) N. gonorrhoeae topoisomerase IV. Enzyme-DNA cleavage complexes were trapped by adding 2 μL of 5% SDS followed by 2 μL of 250 mM EDTA (pH 8.0). Proteinase K was added (2 μL of a 0.8 mg/mL solution), and reaction mixtures were incubated at 45 °C for 30 min to digest the enzyme. Samples were mixed with 2 μL of loading buffer and heated at 45 °C for 2 min prior to electrophoresis in 1% agarose gels in 40 mM Tris-acetate (pH 8.3), and 2 mM EDTA containing 0.5 μg/mL ethidium bromide. DNA bands were visualized by midrange ultraviolet light and quantified using an Alpha Innotech digital imaging system (Protein Simple). Single-stranded DNA cleavage was monitored by the conversion of negatively supercoiled to nicked plasmid molecules.

For assay [2], the system named is N. gonorrhoeae topoisomerase IV ParC^S88P. The experiment in a line: biochemical. The following applies: ParC S88P vs WT topoisomerase IV. On the procedure:
as §1, §2

For assay [3], the target named is T1, WT N. gonorrhoeae topoisomerase IV (Neisseria gonorrhoeae, UniProt P48374).
T1 sequence (P48374 1-768): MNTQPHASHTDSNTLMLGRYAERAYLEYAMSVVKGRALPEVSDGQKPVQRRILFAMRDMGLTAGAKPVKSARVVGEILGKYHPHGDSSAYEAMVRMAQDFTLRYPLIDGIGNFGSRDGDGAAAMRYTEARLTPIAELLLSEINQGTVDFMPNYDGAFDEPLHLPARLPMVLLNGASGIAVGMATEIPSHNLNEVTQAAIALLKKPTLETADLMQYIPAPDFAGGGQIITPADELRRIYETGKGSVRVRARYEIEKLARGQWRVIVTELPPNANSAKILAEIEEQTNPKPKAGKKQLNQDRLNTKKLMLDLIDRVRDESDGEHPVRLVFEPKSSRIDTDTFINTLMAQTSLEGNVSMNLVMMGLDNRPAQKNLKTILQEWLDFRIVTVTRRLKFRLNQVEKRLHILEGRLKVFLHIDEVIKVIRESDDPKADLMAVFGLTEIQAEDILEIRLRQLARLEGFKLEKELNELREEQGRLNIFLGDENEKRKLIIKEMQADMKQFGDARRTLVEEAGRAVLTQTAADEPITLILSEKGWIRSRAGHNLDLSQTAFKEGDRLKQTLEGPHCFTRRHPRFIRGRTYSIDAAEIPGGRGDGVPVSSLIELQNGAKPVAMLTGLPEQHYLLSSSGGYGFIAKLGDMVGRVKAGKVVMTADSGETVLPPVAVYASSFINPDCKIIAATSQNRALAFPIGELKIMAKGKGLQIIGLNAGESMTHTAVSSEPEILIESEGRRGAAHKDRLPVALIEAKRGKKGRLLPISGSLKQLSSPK
As to the kind of experiment: biochemical. On the procedure:
as §1, §2

The target of assay [4] is T2, N. gonorrhoeae gyrase GyrA^D90N (Neisseria gonorrhoeae, UniProt P48371, D90N).
T2 construct: His; made in house
As to the kind of experiment: Gyrase-catalyzed DNA supercoiling assay, GyrA^D90N. It is filed as biochemical. The following applies: read-out: IC50, inhibition of DNA supercoiling. The method, then:
All proteins were His-tagged. N. gonorrhoeae WT gyrase (GyrA, GyrB) and topoisomerase IV (ParC, ParE) subunits as well as mutant GyrA^D90N, GyrA^A92T, GyrA^S91F, and GyrA^S91F/D95G gyrase and ParC^D86N and ParC^S88P topoisomerase IV were prepared as described previously. , N. gonorrhoeae mutant GyrA^D95G gyrase and mutant ParC^S87N and ParC^E91G topoisomerase IV were generated using a QuickChange II XL site-directed mutagenesis kit (Agilent Technologies) with custom primers for the desired mutations. […] The identities of all constructs were confirmed by DNA sequencing, and all enzymes were stored at −80 °C. In all assays, N. gonorrhoeae gyrase or topoisomerase IV was used as a 1:1 GyrA:GyrB or ParC:ParE mixture, respectively, and the stated enzyme concentration reflects that of the holoenzyme (A2B2).
Samples were mixed with 2 μL of loading dye [60% sucrose, 10 mM Tris–HCl (pH 7.9), 0.5% bromophenol blue, and 0.5% xylene cyanol FF] and incubated at 45 °C for 2 min before being subjected to electrophoresis on 1% agarose gels in 100 mM Tris-borate (pH 8.3) and 2 mM EDTA. […] DNA bands were visualized with medium-range ultraviolet light and quantified using an Alpha Innotech digital imaging system (Protein Simple). DNA supercoiling was monitored by the conversion of relaxed to supercoiled plasmid.

Broadly, the EC50 is the concentration needed to bring the measured effect to its halfway point. One may read the IC50 as the concentration needed to halve the response being measured.

A value given as a limit tells only on which side of the number the result lay.

T2 sequence (P48371 whole entry D90N): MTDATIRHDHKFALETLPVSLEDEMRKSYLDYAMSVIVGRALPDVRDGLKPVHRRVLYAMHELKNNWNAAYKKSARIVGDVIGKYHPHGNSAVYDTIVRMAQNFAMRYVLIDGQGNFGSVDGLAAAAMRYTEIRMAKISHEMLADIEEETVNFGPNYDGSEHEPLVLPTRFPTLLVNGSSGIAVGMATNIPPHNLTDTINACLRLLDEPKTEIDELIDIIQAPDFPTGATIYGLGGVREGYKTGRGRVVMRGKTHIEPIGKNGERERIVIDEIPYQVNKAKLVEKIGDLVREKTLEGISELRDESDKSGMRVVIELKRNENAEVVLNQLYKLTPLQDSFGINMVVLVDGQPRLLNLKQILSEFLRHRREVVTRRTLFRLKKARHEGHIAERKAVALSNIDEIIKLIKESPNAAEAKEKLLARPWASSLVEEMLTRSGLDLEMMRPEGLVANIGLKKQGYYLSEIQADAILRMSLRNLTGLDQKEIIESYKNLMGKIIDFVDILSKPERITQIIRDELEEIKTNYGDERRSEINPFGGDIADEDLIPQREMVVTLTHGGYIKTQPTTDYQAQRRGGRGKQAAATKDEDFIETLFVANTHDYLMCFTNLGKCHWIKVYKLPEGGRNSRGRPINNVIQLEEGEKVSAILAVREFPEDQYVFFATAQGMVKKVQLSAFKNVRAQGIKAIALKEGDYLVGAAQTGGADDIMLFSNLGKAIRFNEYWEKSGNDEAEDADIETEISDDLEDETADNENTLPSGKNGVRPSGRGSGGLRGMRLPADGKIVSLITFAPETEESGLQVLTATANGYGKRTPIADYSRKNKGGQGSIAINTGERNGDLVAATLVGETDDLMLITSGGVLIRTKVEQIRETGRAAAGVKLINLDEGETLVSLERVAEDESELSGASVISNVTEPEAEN
T2 sequence (P22118 whole entry partner): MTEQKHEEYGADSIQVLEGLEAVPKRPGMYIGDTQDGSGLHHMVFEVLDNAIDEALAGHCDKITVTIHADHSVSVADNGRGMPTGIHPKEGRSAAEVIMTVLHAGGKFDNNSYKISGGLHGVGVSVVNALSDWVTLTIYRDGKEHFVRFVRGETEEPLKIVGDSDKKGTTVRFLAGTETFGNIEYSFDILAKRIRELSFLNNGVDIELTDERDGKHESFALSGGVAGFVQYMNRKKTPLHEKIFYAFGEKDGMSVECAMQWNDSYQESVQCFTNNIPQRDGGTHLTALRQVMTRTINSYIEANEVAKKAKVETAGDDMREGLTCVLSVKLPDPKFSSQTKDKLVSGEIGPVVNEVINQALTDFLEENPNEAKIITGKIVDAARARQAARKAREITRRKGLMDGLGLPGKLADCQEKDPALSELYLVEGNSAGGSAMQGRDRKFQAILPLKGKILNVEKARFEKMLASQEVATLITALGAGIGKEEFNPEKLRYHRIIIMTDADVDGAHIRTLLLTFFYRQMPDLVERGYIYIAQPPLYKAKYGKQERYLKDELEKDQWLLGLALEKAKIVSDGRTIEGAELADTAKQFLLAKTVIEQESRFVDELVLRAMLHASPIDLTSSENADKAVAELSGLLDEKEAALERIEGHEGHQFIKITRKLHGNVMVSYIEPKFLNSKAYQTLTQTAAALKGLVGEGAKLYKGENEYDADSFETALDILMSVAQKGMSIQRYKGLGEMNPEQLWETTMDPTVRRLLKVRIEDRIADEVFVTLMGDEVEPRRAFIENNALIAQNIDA

For `O=c1ccc2ncc(=O)n3c2n1C[C@H]3CN1CCC(NCc2cc3c(cn2)OCCC3)CC1` [gepotidacin], the “fold decrease of Adj-Max Cleavage vs WT” value in assay [1] was ~3.2 fold. The “more single-stranded DNA cleavage with mutant enzyme compared to WT” value in assay [2] was ~40%. Besides, the EC50 in assay [3] came to 600 ± 200 nM. In addition, the “effect of ATP on potency and maximal DNA cleavage” value in assay [3] (WT topoisomerase IV, 1.5 mM ATP) was “little effect”. The “effect on double-stranded DNA breaks” value in assay [3] (WT topoisomerase IV, Mg2+ replaced with Ca2+) is reported as “clear suppression”. Moreover, the “Adj-Max Cleavage, single-stranded DNA breaks” value in assay [3] (WT topoisomerase IV, adjusted for baseline cleavage) was ~42.8%. Further, in assay [3] (WT topoisomerase IV, up to 200 μM gepotidacin, up to 180 min), the “additional enhancement of double-stranded DNA breaks above baseline” value is listed as “not observed”. Further, in assay [4], the 50% inhibitory concentration (IC50) is > 100000 nM.
